From US9695156B2, “Compounds for the treatment and prevention of infections” (Brown University, priority 2012, dated 2017)

How the values were obtained:
[1] = test system: JCPyV; assay: Dose dependent inhibition of infection, flow cytometric scoring, SVG-A cells; format: cell-based, JC polyomavirus; conditions: for inhibition of JCPyV infection (FIG. 8C): 100 μM, SVG-A cells pre-incubated, flow cytometry
[2] = Conversion (cyclization) of Retro-2 in solution; format: physicochemical
[3] = test system: BKPyV; assay: Dose dependent inhibition of infection, flow cytometric scoring, Vero cells; format: cell-based, BK polyomavirus; conditions: Betapolyomavirus hominis, VP1 at 72 h, compared to vehicle control, read-out: calculated EC50, decrease in percentage of cells expressing VP1
[4] = test system: SV40; assay: as above; format: cell-based, simian virus 40; conditions: Betapolyomavirus macacae, VP1 at 72 h, compared to vehicle control, read-out: calculated EC50, decrease in percentage of cells expressing VP1
[5] = test system: Ad5-GFP pseudovirus; format: cell-based, Adenovirus Type 5; conditions: Vero cells pre-treated, GFP positive cells by flow cytometry
[6] = test system: JCPyV; assay: Multicycle growth assay and reinfection assay in established infection, SVG-A cells; format: cell-based, JC polyomavirus
[7] = test system: BKPyV; assay: Multicycle growth assay and reinfection assay in established infection, Vero cells; format: cell-based, BK polyomavirus
[8] = test system: SV40; assay: as above; format: cell-based, simian virus 40
[9] = test system: SVG-A or Vero cells; format: cell-based
Experimental: The viability of SVG-A or Vero cells were first tested after treatment with Retro-2^cycl. Cells were treated with Retro-2^cycl at the indicated concentrations for 72 h before viability was assessed using the CellTiter 96 AQueous One Solution Cell Proliferation Assay. As a control, cells were treated with either 0.04% DMSO or with 10% SDS. Error bars denote standard deviation.

[10] = test system: JCPyV; assay: Time course (time of addition) experiment, SVG-A cells; format: cell-based, JC polyomavirus
[11] = test system: BKPyV; assay: Time course (time of addition) experiment, Vero cells; format: cell-based, BK polyomavirus
[12] = test system: SV40; assay: as above; format: cell-based, simian virus 40
[13] = test system: BKPyV; assay: Binding of labeled virus to Vero cells, flow cytometry; format: cell-based, BK polyomavirus; conditions: 100 μM, 1 h pretreatment
[14] = test system: SV40; assay: as above; format: cell-based, simian virus 40; conditions: 100 μM, 1 h pretreatment
[15] = test system: JCPyV; assay: Endocytosis assay, trypan blue quenching, confocal microscopy; format: cell-based, JC polyomavirus; conditions: 100 μM Retro-2, 30 μM chloropromazine; fixed at 2 h
[16] = test system: BKPyV; assay: as above; format: cell-based, BK polyomavirus; conditions: 100 μM Retro-2, 100 μM nystatin; fixed at 2 h
[17] = test system: SV40; assay: as above; format: cell-based, simian virus 40; conditions: 100 μM Retro-2, 100 μM nystatin; fixed at 2 h
[18] = test system: CTxB; format: cell-based
[19] = test system: JCPyV; assay: ER trafficking assay, colocalization with PDI; format: cell-based, JC polyomavirus
[20] = test system: BKPyV; assay: ER trafficking assay, colocalization with PDI; format: cell-based, BK polyomavirus
[21] = test system: SV40; assay: ER trafficking assay, colocalization with PDI; format: cell-based, simian virus 40
[22] = test system: CTxB; format: cell-based; remark: listed apart in the source
[23] = test system: JCPyV; assay: VP2 release assay; format: cell-based, JC polyomavirus; conditions: 100 μM Retro-2, 500 ng/mL brefeldin A; MOI 10, 10 hpi
[24] = test system: BKPyV; assay: VP2 release assay; format: cell-based, BK polyomavirus; conditions: 100 μM Retro-2, 500 ng/mL brefeldin A; MOI 10, 10 hpi
[25] = test system: SV40; assay: VP2 release assay; format: cell-based, simian virus 40; conditions: 100 μM Retro-2, 500 ng/mL brefeldin A; MOI 10, 10 hpi
[26] = test system: Stx2; conditions: cited from earlier work
[27] = test system: cells; conditions: cited from earlier work
[28] = 100 μM, re-fed daily, 12 days post infection, MOI 0.01

CCc1ccc(C2Nc3ccccc3C(=O)N2c2ccccc2)s1 (stereo not drawn) [BU62382A4]
potency against polyomavirus infectivity relative to Retro-2^cycl ([1]; preliminary SAR, ethyl instead of methyl at position 5 of thiophenyl ring): does not negatively impact potency

Cc1ccc(/C=N/c2ccccc2C(=O)Nc2ccccc2)s1 [Retro-2, 2-(((5-methylthiophen-2-yl)methylene)amino)-N-phenylbenzamide]
conversion to Retro-2^cycl in solution [2]: rapidly converts

Cc1ccc(C2Nc3ccccc3C(=O)N2c2ccccc2)s1 (stereo not drawn) [Retro-2^cycl, 2-(5-methylthiophen-2-yl)-3-phenyl-2,3-dihydroquinazolin-4(1H)-one]
EC50 ([1]; JC polyomavirus, SVG-A cells, VP1 at 72 h, compared to vehicle control, read-out: calculated EC50, decrease in percentage of cells expressing VP1): 28.4 µM
EC50 [3]: 61.2 µM
EC50 [4]: 58.6 µM
inhibition of Ad5-GFP transduction [5]: did not inhibit transduction
inhibition of viral spread (percentage of infected cells vs vehicle control) [6, 28]: 90.5%
infectious virions in tissue culture supernatant (reinfection of naive cells) ([6]; cultures treated with 100 μM): significantly less infectious virions
cytopathic effect in JCV infected SVG-A cells ([6]; phase contrast microscopy at 15 days post infection, vs DMSO): reduces cytopathic effect
inhibition of viral spread (percentage of infected cells vs vehicle control) [7, 28]: 89%
infectious virions in tissue culture supernatant (reinfection of naive cells) ([7]; cultures treated with 100 μM): significantly less infectious virions
inhibition of viral spread (percentage of infected cells vs vehicle control) [8, 28]: 84%
infectious virions in tissue culture supernatant (reinfection of naive cells) ([8]; cultures treated with 100 μM): significantly less infectious virions
cell viability at effective doses [9]: do not negatively affect cell viability
infectivity regained when compound is added late [10]: greater than 80%
time of addition after which most of the inhibitory effect is lost [10]: > 14 h
time of addition at which infectivity is still significantly reduced [10]: up to 4 hours post infection (hpi)
infectivity regained when compound is added late [11]: greater than 80%
time of addition after which most of the inhibitory effect is lost [11]: > 12 h
time of addition at which infectivity is still significantly reduced [11]: up to 4 hours post infection (hpi)
infectivity regained when compound is added late [12]: greater than 80%
time of addition after which most of the inhibitory effect is lost [12]: > 12 h
time of addition at which infectivity is still significantly reduced [12]: up to 4 hours post infection (hpi)
binding to cells compared to vehicle control [13]: slight decreases
binding to cells compared to vehicle control [14]: slight decreases
inhibition of endocytosis [15]: does not inhibit endocytosis
inhibition of endocytosis [16]: does not inhibit endocytosis
inhibition of endocytosis [17]: does not inhibit endocytosis
inhibition of endocytosis [18]: does not inhibit endocytosis
co-localization of JCV-633 with Rab5 endosomes [19]: increases co-localization
colocalization with the ER protein PDI [19]: significantly reduces colocalization
colocalization with the ER protein PDI [20]: significantly reduces colocalization
colocalization with the ER protein PDI [21]: reduced, although this reduction was not significant
colocalization with the ER protein PDI [22]: significantly reduces colocalization
cells exposing VP2 [23]: significant reduction of cells exposing VP2
cells exposing VP2 [24]: significant reduction of cells exposing VP2
cells exposing VP2 [25]: significant reduction of cells exposing VP2
protection of cells from toxin [26]: able to protect cells

Cc1ccc(/C=N/c2cccc(C(=O)Nc3ccccc3)c2)s1 [Retro-2^meta]
inhibition of JCPyV infection (FIG. 8C) [1]: significantly less active
colocalization with the ER protein PDI [19]: significant colocalization
colocalization with the ER protein PDI [20]: significant colocalization
colocalization with the ER protein PDI [21]: significant colocalization
colocalization with the ER protein PDI [22]: significant colocalization

Cc1ccc(CNc2ccccc2C(=O)Nc2ccccc2)s1 [Retro-2^red]
inhibition of JCPyV infection (FIG. 8C) [1]: significantly less active

C[C@H]1CCC/C=C/[C@@H]2C[C@H](O)C[C@H]2[C@H](O)/C=C/C(=O)O1 [brefeldin A, reference compound]
reduction in infectivity ([1]; 20 ng/mL, SVG-A cells, positive control): 96%
colocalization with the ER protein PDI [19]: significantly reduces colocalization
colocalization with the ER protein PDI [20]: significantly reduces colocalization
colocalization with the ER protein PDI [21]: reduced, although this reduction was not significant
colocalization with the ER protein PDI [22]: significantly reduces colocalization
cells exposing VP2 [23]: significant reduction in the number of cells with VP2 exposed
cells exposing VP2 [24]: significant reduction in the number of cells with VP2 exposed
cells exposing VP2 [25]: significant reduction in the number of cells with VP2 exposed
cytotoxicity to cells [27]: highly cytotoxic

CN(C)CCCN1c2ccccc2Sc2ccc(Cl)cc21 [chloropromazine, reference compound]
inhibition of endocytosis [15]: inhibits endocytosis

C[C@@H]1[C@H](O)[C@@H](C)/C=C/C=C/CC/C=C/C=C/C=C/C=C/C(O[C@H]2O[C@H](C)[C@@H](O)[C@H](N)[C@@H]2O)CC2O[C@](O)(CC(O)C(O)CCC(O)CC(O)CC(O)CC(=O)O[C@H]1C)CC(O)C2C(=O)O (stereo partly drawn) [nystatin, reference compound]
inhibition of endocytosis [16]: inhibits endocytosis
inhibition of endocytosis [17]: inhibits endocytosis
inhibition of endocytosis [18]: inhibits endocytosis
